{
  "source": "patent US20110130384A1",
  "about": "“AMIDE COMPOUND” (TAKEDA PHARMACEUTICAL COMPANY LIMITED, priority 2008, published 2011)",
  "biological_target": "T1, human GPR52 (Homo sapiens, UniProt Q9Y2T5)",
  "T1 construct": "expressed in transfected cells; host or cells: CHO(dhfr-) cells",
  "T1 sequence (Q9Y2T5 whole entry)": "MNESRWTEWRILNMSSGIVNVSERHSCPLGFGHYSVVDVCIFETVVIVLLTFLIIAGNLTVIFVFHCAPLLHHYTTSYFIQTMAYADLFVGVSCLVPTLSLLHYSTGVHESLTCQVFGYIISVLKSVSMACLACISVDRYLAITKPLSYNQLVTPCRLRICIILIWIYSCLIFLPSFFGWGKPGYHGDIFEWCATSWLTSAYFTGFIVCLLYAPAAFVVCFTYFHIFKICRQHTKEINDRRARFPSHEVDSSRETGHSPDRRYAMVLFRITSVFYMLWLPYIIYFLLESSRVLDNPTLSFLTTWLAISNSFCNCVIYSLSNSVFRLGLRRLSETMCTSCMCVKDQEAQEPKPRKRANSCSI",
  "test": "Increase of intracellular cAMP concentration in human GPR52-expressing CHO cell (AlphaScreen cAMP assay)",
  "assay_type": "cell-based",
  "conditions": "1 μM test compound, human GPR52-expressing CHO(dhfr-) cells, 37° C. for 30 min; intracellular cAMP with 1 μM Reference Example 124 = 100%, DMSO = 0%",
  "description": "Increase of Intracellular cAMP Concentration in Human GPR52-Expressing CHO Cell\nUsing OptiPlate-384 (PerkinElmer Inc.), 1×10^4 human GPR52-expressing CHO(dhfr-) cells were incubated together with 1 μM of a test compound in an assay buffer (30 μL, HBSS (containing Ca^2+ and Mg^2+), 0.5% BSA, 100 μm IBMX, 100 μm Ro20-1724, 5 mM HEPES (pH 7.55)) at 37° C. for 30 min. Thereafter, according to the protocol of AlphaScreen cAMP Assay Kit (PerkinElmer Inc.), the intracellular cAMP concentration was measured by EnVision (PerkinElmer Inc.). The GPR52 agonist activity was calculated, assuming the intracellular cAMP concentration in the presence of 1 μM 3-(6-(2-(3,4-dimethoxyphenyl)ethoxy)pyridin-2-yl)-N-(2-pyrrolidin-1-ylethyl)benzamide (Reference Example 124) to be 100% and assuming the intracellular cAMP concentration when DMSO was added instead of the test compound to be 0%.",
  "data": [
    {"smiles": "O=C(NCCO)c1cccc(-c2ccc3c(c2)N(Cc2cc(Cl)cc(Cl)c2)CC3)c1", "note": "[Example 16, 3-[1-(3,5-dichlorobenzyl)-2,3-dihydro-1H-indol-6-yl]-N-(2-hydroxyethyl)benzamide]", "values": [
      {"measurement": "GPR52 agonist activity (%)", "value": 84, "unit": "%"}
    ]},
    {"smiles": "CN(C)CCNC(=O)c1cccc(-c2ccc3c(c2)C(c2cc(Cl)ccc2Cl)CC3)c1", "note": "(stereo not shown) [Example 51, 3-[3-(2,5-dichlorophenyl)-2,3-dihydro-1H-inden-5-yl]-N-[2-(dimethylamino)ethyl]benzamide]", "values": [
      {"measurement": "GPR52 agonist activity (%)", "value": 89, "unit": "%"}
    ]},
    {"smiles": "N#CCCNC(=O)c1cccc(-c2ccc3c(c2)C(c2ccc(Cl)cc2Cl)CC3)c1", "note": "(single isomer, unassigned; (-)) [Example 62, (−)-N-(2-cyanoethyl)-3-[3-(2,4-dichlorophenyl)-2,3-dihydro-1H-inden-5-yl]benzamide]", "values": [
      {"measurement": "GPR52 agonist activity (%)", "value": 81, "unit": "%"}
    ]},
    {"smiles": "O=C(NC1CC1)c1cccc(-c2ccc3c(c2)C(Oc2ccc(Cl)cc2Cl)CC3)c1", "note": "(stereo not shown) [Example 78, N-cyclopropyl-3-[3-(2,4-dichlorophenoxy)-2,3-dihydro-1H-inden-5-yl]benzamide]", "values": [
      {"measurement": "GPR52 agonist activity (%)", "value": 59, "unit": "%"}
    ]},
    {"smiles": "C[S+]([O-])CCNC(=O)c1cccc(-c2ccc3c(c2)C(c2ccc(Cl)cc2Cl)CC3)c1", "note": "(stereo not shown) [Example 66, 3-[3-(2,4-dichlorophenyl)-2,3-dihydro-1H-inden-5-yl]-N-[2-(methylsulfinyl)ethyl]benzamide]", "values": [
      {"measurement": "GPR52 agonist activity (%)", "value": 88, "unit": "%"}
    ]},
    {"smiles": "O=C(NC(CO)CO)c1cccc(-c2ccc3c(c2)C(c2ccc(Cl)cc2Cl)CC3)c1", "note": "(stereo not shown) [Example 65, 3-[3-(2,4-dichlorophenyl)-2,3-dihydro-1H-inden-5-yl]-N-[2-hydroxy-1-(hydroxymethyl)ethyl]benzamide]", "values": [
      {"measurement": "GPR52 agonist activity (%)", "value": 91, "unit": "%"}
    ]},
    {"smiles": "N#CCCNC(=O)c1cccc(-c2ccc3c(c2)N(Cc2ccc(Cl)cc2Cl)CC3)c1", "note": "[Example 13, N-(2-cyanoethyl)-3-[1-(2,4-dichlorobenzyl)-2,3-dihydro-1H-indol-6-yl]benzamide]", "values": [
      {"measurement": "GPR52 agonist activity (%)", "value": 60, "unit": "%"}
    ]},
    {"smiles": "O=C(NCCO)c1cccc(-c2ccc3c(n2)N(Cc2ccc(Cl)cc2Cl)CC3)c1", "note": "[Example 29, 3-[1-(2,4-dichlorobenzyl)-2,3-dihydro-1H-pyrrolo[2,3-b]pyridin-6-yl]-N-(2-hydroxyethyl)benzamide]", "values": [
      {"measurement": "GPR52 agonist activity (%)", "value": 76, "unit": "%"}
    ]},
    {"smiles": "O=C(NCCO)c1cccc(-c2ccc3ccn(-c4ccc(Cl)cc4Cl)c3n2)c1", "note": "[Example 33, 3-[1-(2,4-dichlorophenyl)-1H-pyrrolo[2,3-b]pyridin-6-yl]-N-(2-hydroxyethyl)benzamide]", "values": [
      {"measurement": "GPR52 agonist activity (%)", "value": 61, "unit": "%"}
    ]},
    {"smiles": "N#CCCNC(=O)c1cccc(-c2ccc3c(c2)C(Oc2ccc(Cl)cc2Cl)CC3)c1", "note": "(stereo not shown) [Example 73, N-(2-cyanoethyl)-3-[3-(2,4-dichlorophenoxy)-2,3-dihydro-1H-inden-5-yl]benzamide]", "values": [
      {"measurement": "GPR52 agonist activity (%)", "value": 73, "unit": "%"}
    ]},
    {"smiles": "O=C(Nc1nccs1)c1cccc(-c2ccc3c(c2)C(Oc2ccc(Cl)cc2Cl)CC3)c1", "note": "(stereo not shown) [Example 82, 3-[3-(2,4-dichlorophenoxy)-2,3-dihydro-1H-inden-5-yl]-N-1,3-thiazol-2-ylbenzamide]", "values": [
      {"measurement": "GPR52 agonist activity (%)", "value": 67, "unit": "%"}
    ]},
    {"smiles": "O=C(NCCO)c1cccc(-c2ccc3c(c2)N(c2ccc(Cl)c(Cl)c2)CC3)c1", "note": "[Example 7, 3-[1-(3,4-dichlorophenyl)-2,3-dihydro-1H-indol-6-yl]-N-(2-hydroxyethyl)benzamide]", "values": [
      {"measurement": "GPR52 agonist activity (%)", "value": 67, "unit": "%"}
    ]},
    {"smiles": "CN(C)CCNC(=O)c1cccc(-c2ccc3c(c2)N(c2ccc(Cl)cc2Cl)CC3)c1", "note": "[Example 1, 3-[1-(2,4-dichlorophenyl)-2,3-dihydro-1H-indol-6-yl]-N-[2-(dimethylamino)ethyl]benzamide]", "values": [
      {"measurement": "GPR52 agonist activity (%)", "value": 87, "unit": "%"}
    ]},
    {"smiles": "CN(C)CCNC(=O)c1cccc(-c2ccc3c(c2)N(Cc2ccc(Cl)cc2Cl)CC3)c1", "note": "[Example 12, 3-[1-(2,4-dichlorobenzyl)-2,3-dihydro-1H-indol-6-yl]-N-[2-(dimethylamino)ethyl]benzamide]", "values": [
      {"measurement": "GPR52 agonist activity (%)", "value": 89, "unit": "%"}
    ]},
    {"smiles": "O=C(NCCCO)c1cccc(-c2ccc3c(n2)N(Cc2ccc(Cl)cc2Cl)CC3)c1", "note": "[Example 31, 3-[1-(2,4-dichlorobenzyl)-2,3-dihydro-1H-pyrrolo[2,3-b]pyridin-6-yl]-N-(3-hydroxypropyl)benzamide]", "values": [
      {"measurement": "GPR52 agonist activity (%)", "value": 62, "unit": "%"}
    ]},
    {"smiles": "CS(=O)(=O)CCNC(=O)c1cccc(-c2ccc3c(c2)C(Oc2ccc(Cl)cc2Cl)CC3)c1", "note": "(stereo not shown) [Example 77, 3-[3-(2,4-dichlorophenoxy)-2,3-dihydro-1H-inden-5-yl]-N-[2-(methylsulfonyl)ethyl]benzamide]", "values": [
      {"measurement": "GPR52 agonist activity (%)", "value": 73, "unit": "%"}
    ]}
  ]
}
